Measurements: US20230286995A1, “METABOLICALLY STABLE PYRIMIDINYL DIHYDROQUINOXALINONES AS TUBULIN POLYMERIZATION INHIBITORS” (UNIVERSITY OF TENNESSEE RESEARCH FOUNDATION, priority 2022, published 2023)
Like-named read-outs stand apart in the source and are kept apart here. One block for each compound: values may come before it.

Key:
[1] = tested on: MDA-MB-231; test: Cytotoxicity assay (MTS, 72 h); type: cell-based; settings: Homo sapiens
[2] = tested on: MDA-MB-453; test: Cytotoxicity assay (MTS, 72 h); type: cell-based, human
[3] = tested on: Mia PaCa-2; test: Cytotoxicity assay (MTS, 72 h); type: cell-based; settings: Homo sapiens
[4] = tested on: PANC-1; test: Cytotoxicity assay (MTS, 72 h); type: cell-based; settings: Homo sapiens
Method: Mia PaCa-2 and PANC-1 cells were seeded in 96-well plates at 4000 and 5000 cells per well, respectively.
Cytotoxicity Assay. […] Each experiment consisted of four replicates.

[5] = tested on: A375; test: Cytotoxicity assay (MTS, 72 h);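 also: compounds tested from 0.1 nM up to 3 µM in four replicate wells, with absorbance read at 490 nm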
[6] = tested on: M14; test: Cytotoxicity assay (MTS, 72 h); settings: Homo sapiens
[7] = tested on: RPMI-7951; test: Cytotoxicity assay (MTS, 72 h); type: cell-based; settings: Homo sapiens, Table 1, read-out: IC50 (nM) Melanoma RPMI-7951
[8] = tested on: MDA-MB-468; test: Cytotoxicity assay (MTS, 72 h); type: cell-based, human; settings: Table 1, read-out: IC50 (nM) Breast MDA-MB-468
[9] = logP; type: physicochemical; settings: Table 1; method not described
[10] = MDA-MB-231, read-out: IC50 (nM) Breast Cancer MDA-MB-231, Table 6
[11] = Homo sapiens, MDA-MB-453, Table 6, read-out: IC50 (nM) Breast Cancer MDA-MB-453
[12] = Table 6, read-out: IC50 (nM) Pancreatic cancer Mia PaCa-2
[13] = Table 6, read-out: IC50 (nM) Pancreatic cancer PANC-1
[14] = Homo sapiens, A-375, read-out: IC50 (nM) Melanoma Cancer A375, Table 6
[15] = M14, read-out: IC50 (nM) Melanoma Cancer M14
[16] = MDA-MB-231, read-out: IC50 Breast Cancer MDA-MB-231, Table 6, cells printed in μM
[17] = Homo sapiens, MDA-MB-453, Table 6, cells printed in μM, read-out: IC50 Breast Cancer MDA-MB-453
[18] = Homo sapiens, A-375, read-out: IC50 Melanoma Cancer A375, Table 6, cells printed in μM
[19] = M14, read-out: IC50 Melanoma Cancer M14
[20] = read-out: IC50 (nM) Melanoma Cancer A375, Table 6
[21] = MDA-MB-231, read-out: IC50 (nM) Breast MDA-MB-231, Table 1
[22] = Table 1, read-out: IC50 (nM) Breast MDA-MB-453
[23] = Homo sapiens, A-375, read-out: IC50 (nM) Melanoma A375, Table 1
[24] = M14, read-out: IC50 (nM) Melanoma M14
[25] = Table 6, cells printed in μM, read-out: IC50 Pancreatic cancer Mia PaCa-2
[26] = Table 6, cells printed in μM, read-out: IC50 Pancreatic cancer PANC-1
[27] = Homo sapiens, MDA-MB-453, Table 1, read-out: IC50 (nM) Breast MDA-MB-453

SMILES: Cc1nc2c(c(N3CC(=O)Nc4cc(OC(F)(F)F)ccc43)n1)CCC2 [Compound 12o, 4-(2-methyl-6,7-dihydro-5H-cyclopenta[d]pyrimidin-4-yl)-7-(trifluoromethoxy)-3,4-dihydroquinoxalin-2(1H)-one]
- IC50 [1, 10]: 75.8 ± 13.1 nM
- IC50 [2, 11]: 34.9 ± 6.4 nM
- IC50 [3, 12]: 83.5 ± 12.8 nM
- IC50 [4, 13]: 42.4 ± 8.5 nM
- IC50 [5, 14]: ~43.1 nM
- IC50 [6, 15]: 41.9 ± 5.6 nM

SMILES: COc1ccc2c(c1)[nH]c(=O)c(=O)n2-c1nc(S(C)(=O)=O)nc2c1CCC2 [Compound 15, 6-methoxy-1-(2-(methylsulfone)-6,7-dihydro-5H-cyclopenta[d]pyrimidin-4-yl)quinoxaline-2,3(1H,4H)-dione]
- IC50 [1, 16]: > 3000 nM
- IC50 [2, 17]: > 3000 nM
- IC50 [5, 18]: > 3000 nM
- IC50 [6, 19]: > 3000 nM

SMILES: Cc1nc2c(c(N3CC(=O)Nc4cc(O)ccc43)n1)CCC2 [Compound 12q, 7-hydroxy-4-(2-methyl-6,7-dihydro-5H-cyclopenta[d]pyrimidin-4-yl)-3,4-dihydroquinoxalin-2(1H)-one]
- IC50 [1, 10]: 25.9 ± 4.9 nM
- IC50 [2, 11]: 13.5 ± 3.3 nM
- IC50 [3, 12]: 34.3 ± 5.3 nM
- IC50 [5, 14]: ~19 nM
- IC50 [6, 15]: 21.8 ± 4.5 nM

SMILES: Cc1nc2c(c(-n3c(=O)[nH]c4cc(OC(F)(F)F)ccc43)n1)CCC2 [Compound 18a, 1-(2-methyl-6,7-dihydro-5H-cyclopenta[d]pyrimidin-4-yl)-5-(trifluoromethoxy)-1H-benzo[d]imidazol-2-one]
- IC50 [1, 10]: 919 ± 722 nM
- IC50 [3, 12]: 667 ± 652 nM
- IC50 [4, 13]: 164 ± 98.2 nM
- IC50 [5, 14]: 238 ± 126 nM
- IC50 [6, 15]: 1080 ± 682 nM

SMILES: COc1ccc2c(c1)NC(=O)CN2c1nc(N2CCCC2)nc2c1CCC2 [Compound 12g, 7-methoxy-4-(2-(pyrrolidin-1-yl)-6,7-dihydro-5H-cyclopenta[d]pyrimidin-4-yl)-3,4-dihydroquinoxalin-2(1H)-one]
- IC50 [1, 10]: 119 ± 20.5 nM
- IC50 [2, 11]: 98.1 ± 23.3 nM
- IC50 [3, 12]: 508 ± 59.1 nM
- IC50 [4, 13]: 213 ± 47.6 nM
- IC50 [5, 14]: ~82.1 nM
- IC50 [5, 20]: 82.2 ± 12.9 nM
- IC50 [6, 15]: 84.7 ± 17.6 nM

SMILES: COc1ccc2c(c1)NC(=O)CN2c1nc(C)nc(C)c1C [Compound 5r, 7-methoxy-4-(2,5,6-trimethylpyrimidin-4-yl)-3,4-dihydroquinoxalin-2(1H)-one]
- IC50 [7]: 8.9 ± 1.5 nM
- IC50 [1, 21]: 18 ± 2.7 nM
- IC50 [2, 22]: 4.3 ± 0.9 nM
- IC50 [8]: 5.2 ± 2.2 nM
- logP [9]: 2.97
- IC50 [5, 23]: 9 ± 1 nM
- IC50 [6, 24]: 9.8 ± 1.7 nM

SMILES: COc1ccc2c(c1)NC(=O)CN2c1nc(N2CCN(C)CC2)nc2c1CCC2 [Compound 12d, 7-methoxy-4-(2-(4-methylpiperazin-1-yl)-6,7-dihydro-5H-cyclopenta[d]pyrimidin-4-yl)-3,4-dihydroquinoxalin-2(1H)-one]
- IC50 [1, 10]: 1860 ± 650 nM
- IC50 [2, 11]: 416 ± 107 nM
- IC50 [3, 25]: > 1250 nM
- IC50 [4, 26]: > 1250 nM
- IC50 [5, 14]: ~543 nM
- IC50 [6, 15]: 574 ± 124 nM

SMILES: COc1ccc2c(c1)[nH]c(=O)c(=O)n2-c1nc(SC)nc2c1CCC2 [Compound 14, 6-methoxy-1-(2-(methylthio)-6,7-dihydro-5H-cyclopenta[d]pyrimidin-4-yl)quinoxaline-2,3(1H,4H)-dione]
- IC50 [5, 18]: > 3000 nM

SMILES: COc1ccc2c(c1)NC(=O)CN2c1nc(Cl)nc2c1CCCC2 [Compound 5o, 4-(2-chloro-5,6,7,8-tetrahydroquinazolin-4-yl)-7-methoxy-3,4-dihydroquinoxalin-2(1H)-one]
- IC50 [7]: > 1000 nM
- IC50 [1, 21]: > 1000 nM
- IC50 [2, 22]: 256 ± 59.5 nM
- IC50 ([8]; Homo sapiens, MDA-MB-468): > 1000 nM
- logP [9]: 3.16
- IC50 [5, 23]: > 1000 nM
- IC50 [6, 24]: > 1000 nM

SMILES: COc1ccc2c(c1)NC(=O)CN2c1nc(S(C)(=O)=O)nc2c1CCC2 [Compound 11, 7-methoxy-4-(2-(methylsulfonyl)-6,7-dihydro-5H-cyclopenta[d]pyrimidin-4-yl)-3,4-dihydroquinoxalin-2(1H) one]
- IC50 [1, 10]: 191 ± 32 nM
- IC50 [2, 11]: 58.8 ± 16.3 nM
- IC50 [3, 25]: > 1250 nM
- IC50 [4, 26]: > 1250 nM
- IC50 [5, 14]: ~84.9 nM
- IC50 [6, 15]: 62.2 ± 10.8 nM

SMILES: COc1ccc2c(c1)NC(=O)CN2c1nc(O)nc2c1CCC2 [Compound 12a, 4-(2-hydroxy-6,7-dihydro-5H-cyclopenta[d]pyrimidin-4-yl)-7-methoxy-3,4-dihydroquinoxalin-2(1H)-one]
- IC50 [1, 10]: 1200 ± 346 nM
- IC50 [2, 11]: 688 ± 186 nM
- IC50 [3, 25]: > 1250 nM
- IC50 [4, 26]: > 1250 nM
- IC50 [5, 14]: ~646 nM
- IC50 [6, 15]: 662 ± 126 nM

- logP [9]: 2.46
SMILES: COc1ccc2c(c1)NC(=O)CN2c1nc(C)nc2onc(C)c12 [Compound 5k, 4-(3,6-dimethylisoxazolo[5,4-d]pyrimidin-4-yl)-7-methoxy-3,4-dihydroquinoxalin-2(1H)-one]
- IC50 [7]: 7 ± 2.3 nM
- IC50 [1, 21]: 9.3 ± 1.6 nM
- IC50 [2, 27]: 4.6 ± 1.1 nM
- IC50 ([8]; Homo sapiens, MDA-MB-468): 7.5 ± 1.6 nM
- IC50 [5, 23]: 14.3 ± 4.1 nM
- IC50 [6, 24]: 6.7 ± 2.2 nM

SMILES: COc1ccc2c(c1)[nH]c(=O)n2-c1nc(SC)nc2c1CCC2 [Compound 18, 5-methoxy-1-(2-(methylthio)-6,7-dihydro-5H-cyclopenta[d]pyrimidin-4-yl)-1H-benzo[d]imidazol-2(3H)-one]
- IC50 [1, 10]: 1340 ± 409 nM
- IC50 [2, 11]: 2180 ± 861 nM
- IC50 [3, 25]: > 1250 nM
- IC50 [4, 26]: > 1250 nM
- IC50 [5, 14]: 1180 ± 339 nM
- IC50 [6, 15]: 1110 ± 306 nM

SMILES: COc1ccc2c(c1)NC(=O)CN2c1nc(N2CCCCC2)nc2c1CCC2 [Compound 12f, 7-methoxy-4-(2-(piperidin-1-yl)-6,7-dihydro-5H-cyclopenta[d]pyrimidin-4-yl)-3,4-dihydroquinoxalin-2(1H)-one]
- IC50 [1, 10]: 690 ± 147 nM
- IC50 [2, 11]: 499 ± 126 nM
- IC50 [3, 25]: > 1250 nM
- IC50 [4, 26]: > 1250 nM
- IC50 [5, 14]: ~436 nM
- IC50 [6, 15]: 601 ± 117 nM

SMILES: COc1cc2c(cc1F)N(c1nc(Cl)nc3cccnc13)CC(=O)N2 [Compound 5i, 4-(2-chloropyrido[3,2-d]pyrimidin-4-yl)-6-fluoro-7-methoxy-3,4-dihydroquinoxalin-2(1H)-one]
- IC50 [7]: > 1000 nM
- IC50 [1, 21]: > 1000 nM
- IC50 [2, 27]: 693 ± 102 nM
- IC50 ([8]; Homo sapiens, MDA-MB-468): 940 ± 300 nM
- logP [9]: 2.23
- IC50 [5, 23]: > 1000 nM
- IC50 [6, 24]: > 1000 nM

SMILES: COc1ccc2c(c1)nc(-c1ccc(OC)c(OC)c1OC)n2-c1nc(SC)nc2c1CCC2 [Compound 19, 5-methoxy-1-(2-(methylthio)-6,7-dihydro-5H-cyclopenta[d]pyrimidin-4-yl)-2-(2,3,4-trimethoxyphenyl)-1H-benzo[d]imidazole]
- IC50 [1, 16]: > 3000 nM
- IC50 [2, 17]: > 3000 nM
- IC50 ([3]; Table 6, cell printed in MM, read-out: IC50 Pancreatic cancer Mia PaCa-2): > 1250 nM
- IC50 [4, 26]: > 1250 nM
- IC50 [5, 18]: > 3000 nM
- IC50 [6, 19]: > 3000 nM

SMILES: COc1ccc2c(c1)NC(=O)CN2c1nc(Cl)nc2ccoc12 [Compound 5j, 4-(2-chlorofuro[3,2-d]pyrimidin-4-yl)-7-methoxy-3,4-dihydroquinoxalin-2(1H)-one]
- IC50 [7]: 14.8 ± 3.7 nM
- IC50 [1, 21]: 5.4 ± 0.6 nM
- IC50 [2, 27]: 1.4 ± 0.3 nM
- IC50 ([8]; Homo sapiens, MDA-MB-468): 6.4 ± 1.3 nM
- logP [9]: 1.6
- IC50 [5, 23]: 11.9 ± 3.2 nM
- IC50 [6, 24]: 5.6 ± 1.2 nM

SMILES: COc1ccc2c(c1)[nH]c(=O)c(=O)n2-c1nc(OC)nc2c1CCC2 [Compound 16, 6-methoxy-1-(2-methoxy-6,7-dihydro-5H-cyclopenta[d]pyrimidin-4-yl)quinoxaline-2,3(1H,4H)-dione]
- IC50 [1, 16]: > 3000 nM
- IC50 [2, 17]: > 3000 nM
- IC50 [3, 25]: > 1250 nM
- IC50 [4, 26]: > 1250 nM
- IC50 [5, 18]: > 3000 nM
- IC50 [6, 19]: > 3000 nM

SMILES: COc1ccc2c(c1)NC(=O)CN2c1nc(N(C)C)nc2c1CCC2 [Compound 12i, 4-(2-(dimethylamino)-6,7-dihydro-5H-cyclopenta[d]pyrimidin-4-yl)-7-methoxy-3,4-dihydroquinoxalin-2(1H)-one]
- IC50 [1, 10]: 36.9 ± 6.1 nM
- IC50 [2, 11]: 16.1 ± 4.7 nM
- IC50 [3, 25]: > 1250 nM
- IC50 [4, 26]: > 1250 nM
- IC50 [5, 14]: ~22.6 nM
- IC50 [5, 20]: 22 ± 4.5 nM
- IC50 [6, 15]: 21.1 ± 4.1 nM
